According to ChEMBL document CHEMBL1142676, “Novel 2-alkylamino-1,4-benzoxazine derivatives as potent neuroprotective agents: structure-activity relationship studies” (J Med Chem, 2005):

Assays:
HT-22 [1] = assay: In vitro safety index as ratio of MTC/PC50 was determined for HT-22 hippocampal cell cultures of mouse by LDH assay; type: functional
HT-22 [2] = assay: In vitro safety index as ratio of MTC/PC50 was determined for HT-22 hippocampal cell cultures of mouse by MTT reduction assay; type: functional
HT-22 [3] = assay: In vitro maximum tolerated concentration against HT-22 hippocampal cell cultures of mouse by LDH assay; type: functional
HT-22 [4] = assay: In vitro maximum tolerated concentration against HT-22 hippocampal cell cultures of mouse by MTT reduction assay; type: functional
HT-22 [5] = assay: In vitro protective concentration of compound for HT-22 hippocampal cell cultures of mouse against 2 mM L-homocysteic acid in LDH assay; type: functional
HT-22 [6] = assay: In vitro protective concentration of compound for HT-22 hippocampal cell cultures of mouse against 2 mM L-homocysteic acid in MTT reduction assay; type: functional
HT-22 [7] = assay: In vitro toxic concentration against HT-22 hippocampal cell cultures of mouse by LDH assay; type: functional; conditions: read-out: TC50 (the source's name)
HT-22 [8] = assay: In vitro toxic concentration against HT-22 hippocampal cell cultures of mouse by MTT reduction assay; type: functional; conditions: read-out: TC50 (the source's name)
[9] = Partition coefficient (logP); type: physicochemical; conditions: octanol/water

| logP [9] | SMILES | Safety index (HT-22 [1]) | Safety index (HT-22 [2]) | MTC (HT-22 [3]) [µM] | MTC (HT-22 [4]) [µM] | PC50 (HT-22 [5]) [µM] | PC50 (HT-22 [6]) [µM] | CC50 (HT-22 [7]) [µM] | CC50 (HT-22 [8]) [µM] |
| --- | --- | --- | --- | --- | --- | --- | --- | --- | --- |
| 5.28 | CC(C)(C)C1COc2c(NCCc3ccccc3)ccc(C(=O)c3ccccc3)c2N1 (configuration not stated) | >62.5 | >100 | >250 | >250 | 4 | 2.5 | > 250 | > 250 |
|  | O=C(c1ccccc1)c1ccc2c(c1O)NC(c1ccccc1)C(NCC(c1ccccc1)c1ccccc1)O2 (configuration not stated) | >50 | >25 | >250 | >250 | 5 | 10 | > 250 | > 250 |
|  | O=C(c1ccccc1)c1ccc2c(c1O)NC1(CCCCC1)C(NCC1CCCCC1)O2 (configuration not stated) | 667 | 20.8 | 100 | 5 | 0.15 | 0.24 | > 250 | 16.5 |
|  | CC1(C)Nc2c(ccc(C(=O)c3ccccc3)c2O)OC1N1CCCCC1 (configuration not stated) | 24.4 | 3.1 | 100 | 10 | 4.1 | 3.2 | 120 | 72 |
|  | O=C(c1ccccc1)c1ccc2c(c1O)NC1(CCCCC1)C(N1CCOCC1)O2 (configuration not stated) | 2.1 | 1.8 | 5 | 5 | 2.4 | 2.8 | 10.4 | 8.2 |
|  | COC(CNC1Oc2ccc(C(=O)c3ccccc3)c(O)c2NC1c1ccccc1)OC (configuration not stated) | >100 | 20 | >250 | 100 | 2.5 | 5 | > 250 | > 250 |
|  | CC(C)CNC1Oc2ccc(C(=O)c3ccccc3)c(O)c2NC1c1ccccc1 (configuration not stated) | 1 | <1 | 10 | 5 | 10 | 10 | 79 | 108 |
|  | O=C(c1ccccc1)c1ccc2c(c1O)NC1(CCCCC1)C(O)O2 (configuration not stated) | 16.6 | 6.2 | 50 | 25 | 3 | 4 | > 250 | 178 |
|  | CC1(C)Nc2c(ccc(C(=O)c3ccccc3)c2O)OC1NCCc1ccccc1 (configuration not stated) | 24.4 | 5 | 100 | 10 | 4.1 | 2 | 199 | 66 |
|  | CC1(C)Nc2c(ccc(C(=O)c3ccccc3)c2O)OC1N1CCOCC1 (configuration not stated) | 66.7 | 5.9 | 100 | 10 | 1.5 | 1.7 | 190 | 75 |
|  | CC(C)CNC1Oc2ccc(C(=O)c3ccccc3)c(O)c2NC1(C)C (configuration not stated) | 185 | 24.4 | 100 | 10 | 0.54 | 0.41 | 160 | 45 |
|  | CC1(C)Nc2c(ccc(C(=O)c3ccccc3)c2O)OC1O (configuration not stated) | 91 | 10.3 | 100 | 10 | 1.1 | 0.97 | > 250 | 48 |
| 5.57 | CN(CC1OCCO1)C1Oc2ccc(C(=O)c3ccccc3)c(O)c2NC1c1ccccc1 (configuration not stated) | >250 | 200 | >250 | 100 | 1 | 0.5 | > 250 | > 250 |
| 5.11 | O=C(c1ccccc1)c1ccc(NCc2ccccc2)c2c1NC1(CCCC1)CO2 | >17.4 | >15.8 | >250 | >250 | 14.4 | 15.8 | > 250 | > 250 |
|  | CN(CC1OCCO1)C1Oc2ccc(C(=O)c3ccccc3)c(O)c2NC12CCCCC2 (configuration not stated) | 11.4 | 2 | 25 | 5 | 2.2 | 2.4 | > 250 | 25 |
|  | O=C(c1ccccc1)c1ccc2c(c1O)NC1(CCCC1)C(NCC1CCCC1)O2 (configuration not stated) | 30.5 | 3.6 | 25 | 5 | 0.82 | 1.39 | 53 | 27 |
|  | CC1(C)Nc2c(ccc(C(=O)c3ccccc3)c2O)OC1NC1CCCCC1 (configuration not stated) | 47.6 | 4.2 | 100 | 10 | 2.1 | 2.4 | 120 | 29 |
|  | O=C(c1ccccc1)c1ccc2c(c1O)NC1(CCCCC1)C(N1CCCCC1)O2 (configuration not stated) | >13.5 | 8.1 | >250 | 100 | 18.5 | 12.3 | > 250 | 250 |
